Article PMC4866733 (PLoS Genetics, 2016)

Tests used:
GacSH1 = biological target: T1, GacSH1 (Pseudomonas aeruginosa, UniProt G3XD98); details: 0.1 mM ATP, 5 mM MgCl2, 50 mM KCl, 50 mM Tris-HCl pH 7.6, 1 mM DTT, room temperature, 20 min; GacSD1 present; labelled compound
T1 construct: gene gacS

LadSH1D1 = biological target: T2, LadSH1D1 (Pseudomonas aeruginosa, UniProt Q9HX42); details: 0.1 mM ATP, 5 mM MgCl2, 50 mM KCl, 50 mM Tris-HCl pH 7.6, 1 mM DTT, room temperature, 20 min; labelled compound; phosphoryl transfer to H428
T2 construct: gene ladS
T2 sequence (Q9HX42 entry or part of it): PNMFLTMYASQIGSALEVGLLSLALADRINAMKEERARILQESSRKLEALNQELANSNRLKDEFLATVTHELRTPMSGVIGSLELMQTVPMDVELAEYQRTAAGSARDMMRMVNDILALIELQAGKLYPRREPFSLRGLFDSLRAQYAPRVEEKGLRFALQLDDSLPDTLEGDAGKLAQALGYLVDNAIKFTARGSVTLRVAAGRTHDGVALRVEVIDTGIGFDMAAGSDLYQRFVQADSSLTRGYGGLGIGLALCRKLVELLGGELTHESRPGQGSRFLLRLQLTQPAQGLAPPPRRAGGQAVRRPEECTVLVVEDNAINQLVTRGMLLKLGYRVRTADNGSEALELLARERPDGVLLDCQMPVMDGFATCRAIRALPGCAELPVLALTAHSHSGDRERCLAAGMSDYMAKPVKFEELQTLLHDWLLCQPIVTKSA

T1 sequence (G3XD98 entry or part of it): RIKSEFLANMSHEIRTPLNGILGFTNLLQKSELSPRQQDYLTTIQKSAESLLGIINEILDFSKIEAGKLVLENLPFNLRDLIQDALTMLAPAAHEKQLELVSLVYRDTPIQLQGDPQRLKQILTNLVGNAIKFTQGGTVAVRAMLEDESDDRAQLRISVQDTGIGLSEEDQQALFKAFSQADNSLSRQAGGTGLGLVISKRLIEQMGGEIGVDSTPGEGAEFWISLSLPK

Nc1ncnc2c1ncn2[C@@H]1O[C@H](COP(=O)(O)OP(=O)(O)OP(=O)(O)O)[C@@H](O)[C@H]1O [[γ-^32P]ATP]
autophosphorylation and phosphotransfer to GacSD1, SDS-PAGE and autoradiography (GacSH1): between the H1 domain of GacS and the D1 domain of GacS | autophosphorylation, SDS-PAGE and autoradiography (LadSH1D1): LadSH1D1 and LadSH1D1D→A proteins were found in an autophosphorylated form
